“And” between values parts separate entries of the source, which are not always exact repeats. Equal values may be shown once.
Test system: WM3248 melanoma cells, 486 antibodies
Assay: Reverse phase protein arrays (RPPA)
Assay type: cell-based, Human
Conditions: 5 uM, single replicates
Excerpt: Pellets were snap frozen in liquid nitrogen and shipped to MD Anderson Cancer Center core RPPA facility for RPPA analysis (Table S5). Three biological replicates for each sample were generated.
Nomenclatures on the RPPA heatmaps: name_of_antibody.species_of_antibody.status_of_antibody. V - antibody validated; C - validation of antibody in progress; Q - antibody nonspecific; E – under evaluation; antibodies raised in M - mouse, G - goat, R - rabbit, or T - rat.

CN(C)c1cccc(Nc2cc(-c3ccccc3)nc(C3CCNCC3)n2)c1 [ARN22089, N1,N1-dimethyl-N3-(6-phenyl-2-(piperidin-4-yl)pyrimidin-4-yl)benzene-1,3-diamine]
RPPA RIP3.R.C: 0.966 and 1.053 and 1.158
RPPA RIP.R.C: 1.003 and 0.876 and 0.747
RPPA RPA32.R.V: 0.852 and 0.696
RPPA RPA32_pS4_S8.R.C: 1.136 and 0.833 and 0.517
RPPA RRM1.R.C: 0.879 and 1.059 and 1.047
RPPA RRM2.R.C: 0.859 and 1.229 and 0.937
RPPA RSK1.R.V: 1.126 and 0.877 and 0.665
RPPA RSK.R.C: 1.019 and 0.958
RPPA Rab11.R.C: 0.952 and 1.156 and 1.116
RPPA Rab25.R.V: 0.918 and 1.136 and 1.098
RPPA Rad17_pS645.R.V: 0.999 and 1.251 and 0.988
RPPA Rad23A.R.C: 0.955 and 1.149 and 0.502
RPPA Rad50.R.V: 1.003 and 1.194 and 0.770
RPPA Rad51.R.C: 1.003 and 1.032 and 0.980
RPPA Raptor.R.V: 0.960 and 1.161 and 0.962
RPPA Rb.M.Q: 1.194 and 0.869 and 0.844
RPPA Rb_pS807_S811.R.V: 1.080 and 1.099 and 0.998
RPPA Rheb.M.C: 1.062 and 0.914 and 0.936
RPPA Rictor.R.C: 1.000 and 1.032 and 1.026
RPPA Rictor_pT1135.R.V: 1.014 and 1.199 and 1.106
RPPA S6.M.V: 1.062 and 0.879 and 1.272
RPPA S6_pS235_S236.R.V: 1.439 and 1.242 and 1.218
RPPA S6_pS240_S244.R.V: 1.857 and 2.231 and 1.126
RPPA SCD.M.V: 1.065 and 0.945 and 1.006
RPPA SDHA.R.V: 0.933 and 1.191 and 1.108
RPPA SF2.R.V: 1.031 and 0.941 and 1.112
RPPA SFRP1.R.V: 1.004 and 0.892 and 0.990
RPPA SGK1.R.V: 1.163 and 1.199 and 0.933
RPPA SGK3.R.V: 0.990 and 0.992 and 0.997
RPPA SHP2.R.V: 1.046 and 0.930 and 1.005
RPPA SHP.2_pY542.R.C: 0.901 and 0.851
RPPA SIRPαR.V: 1.213 and 0.860 and 0.910
RPPA SLC1A5.R.C: 0.927 and 0.907 and 0.859
RPPA SOD1.M.V: 0.996 and 0.939
RPPA SOD2.R.V: 1.034 and 0.952 and 1.114
RPPA SOX7.R.V: 0.983 and 0.930 and 0.848
RPPA STING.R.V: 0.930 and 1.130 and 0.957
RPPA Shc_pY317.R.C: 0.667 and 0.896
RPPA Slfn11.G.C: 0.877 and 0.828 and 0.650
RPPA Smac.M.Q: 0.952 and 1.016 and 0.799
RPPA Smad1.R.V: 0.992 and 1.196 and 1.151
RPPA Smad3.R.V: 0.939 and 1.113 and 0.837
RPPA Smad4.R.V: 1.058 and 0.905 and 1.133
RPPA Snail.M.Q: 1.030 and 0.955 and 1.052
RPPA Sox2.R.V: 0.983 and 0.974 and 1.000
RPPA Sox17.R.V: 0.873 and 0.902
RPPA Src.M.V: 1.031 and 1.029 and 1.140
RPPA Src_pY416.R.V: 1.004 and 0.964
RPPA Src_pY527.R.V: 0.980 and 1.499
RPPA Stat1_pY701.R.V: 1.025 and 0.919 and 0.955
RPPA Stat3.R.C: 1.026 and 1.019
RPPA Stat3_pY705.R.C: 1.097 and 0.794 and 0.850
RPPA Stat5a.R.V: 0.973 and 1.401 and 1.115
RPPA Stathmin.1.R.V: 0.937 and 0.952 and 1.084
RPPA Syk.M.V: 0.889 and 1.061 and 1.011
RPPA Synaptophysin.R.C: 1.047 and 0.925 and 1.079
RPPA TAZ.R.V: 1.033 and 0.986 and 0.848
RPPA TEAD.R.C: 0.869 and 1.210 and 0.956
RPPA TFAM.R.V: 0.929 and 1.064 and 1.050
RPPA TFRC.R.V: 0.850 and 0.994
RPPA TIGAR.R.V: 1.007 and 1.053
RPPA TRAP1.M.V: 1.020 and 0.986
RPPA TRIM24.R.C: 1.055 and 0.901
RPPA TRIM25.R.C: 0.917 and 1.142 and 1.151
RPPA TRIP13.R.V: 1.080 and 0.849 and 0.914
RPPA Tau.M.C: 0.914 and 1.000
RPPA Transglutaminase.M.V: 1.130 and 0.535
RPPA level HLA.DQA1.R.V: 0.968 and 1.061 and 0.815
RPPA level HLA.DR.DP.DQ.DX.R.C: 0.974 and 0.976 and 0.833
RPPA level HMHA1.R.V: 1.021 and 1.238 and 1.140
RPPA level HNRNPK.R.V: 0.971 and 0.906
RPPA level HSP27.M.C: 1.164 and 1.033
RPPA level HSP27_pS82.R.V: 0.984 and 1.234 and 1.120
RPPA level HSP60.R.V: 0.905 and 1.108
RPPA level HSP70.R.C: 0.973 and 0.970
RPPA level Hexokinase.I.R.C: 0.945 and 0.709
RPPA level Hexokinase.II.R.V: 1.124 and 0.975 and 0.876
RPPA level Hif.1αR.C: 1.102 and 1.349 and 0.701
RPPA level Histone.H3.R.V: 0.982 and 1.330 and 0.576
RPPA level Histone.H3_pS10.R.V: 0.692 and 0.713
RPPA level IDO.R.C: 0.970 and 1.199 and 1.031
